Measured values reported in patent publication US20100255580A1, “Differentiation of Human Embryonic Stem Cells” (LIFESCCAN, INC., priority 2007, published 2010).

Legend:
[1] = system: human embryonic stem cells (H9, H7) on MATRIGEL; assay: FACS of CXCR4, DE protocol on […] (feeder-free); type: cell-based; conditions: for cells expressing CXCR4 (FACS): H9 passage 54, end of the 5th day, 100 ng/ml Activin A +/− 10 ng/ml Wnt3a for 2 days
Method: Adhered cells were removed from culture plates by five-minute incubation with TrypLE™ Express solution (Invitrogen, CA). Released cells were resuspended in human embryonic stem cell culture medium and recovered by centrifugation, followed by washing and resuspending the cells in a staining buffer consisting of 2% BSA, 0.05% sodium azide in PBS (Sigma, MO). As appropriate, the cells were Fc-receptor blocked for 15 minutes using a 0.1% γ-globulin (Sigma) solution. […] Controls included appropriate isotype matched antibodies, unstained cells, and cells stained only with secondary conjugated antibody. All incubations with antibodies were performed for 30 mins at 4° C. after which the cells were washed with the staining buffer. Samples that were stained with unconjugated primary antibodies were incubated for an additional 30 mins at 4° C. with secondary conjugated PE or -APC labeled antibodies. See Table I for a list of secondary antibodies used. Washed cells were pelleted and resuspended in the staining buffer, and the cell surface molecules were identified using a FACS Array (BD Biosciences) instrument, collecting at least 10,000 events.
Differentiation of embryonic stem cells to definitive endoderm was carried out as previously described in Nature Biotechnology 23, 1534-1541 (December 2005). […] H9 cells were cultured on plates coated with growth factor reduced […] at a 1:30 to 1:10 dilution or on regular […] at a 1:30 to 1:10 dilution The plates were coated with […] for 1 hr at room temperature.
At day 5, the cultures were analyzed by FACS for CXCR4, E-cadherin, CD9, and N-cadherin expression and by real time PCR for SOX-17, SOX-7, Alpha-fetal protein (AFP), CXCR4, Brychyury (Bry), gooscecoid (GSC), HNF-3 beta, and GATA4. AFP and SOX-7 are regarded as visceral endoderm markers, while GATA4, HNF-3 beta and SOX-17 represent definite endoderm markers, and GSC, Bry, and CXCR4 represent markers of primitive streak. FIG. 17 depicts the expression of CXCR4 by FACS.
Differentiation of embryonic stem cells to definitive endoderm was carried out as previously described in Nature Biotechnology 23, 1534-1541 (December 2005). […] In all subsequent examples unless otherwise noted, this treatment regimen will be referred to as the definite endoderm (DE) protocol. In parallel, H9, H7, or H1 cells cultured on MEF feeders were also exposed to the same DE protocol outlined above.
In some of the cultures 20 ng/ml Wnt-3a (Catalog #1324-WN-002, R&D Systems, MN), 20 ng/ml Wnt-5a (Catalog #654-WN-010, R&D Systems, MN), 25 ng/ml Wnt-7a (Catalog #3008-WN-025, R&D Systems, MN), or 25 ng/ml Wnt-5b (Catalog #3006-WN-025, R&D Systems, MN) was added throughout the five day treatment. FIG. 24 depicts phase contrast images of H9P46 definitive endoderm culture in the presence of high concentration of (a) AA or (b) AA+20 ng/ml Wnt-3a. FIG. 25 depicts the expression of CXCR4 by FACS at day 5 for H7P44, and H9P46 lines cultured on […] (1:30 dilution) and exposed to the DE protocol+Wnt-3a (FIG. 25, panels b and d) and −Wnt-3a (FIG. 25, panels a and c).
Control cultures were not treated with Wnt-3a. FIG. 27, panel a depicts the expression of CXCR4 by FACS at day 5 in the absence of Wnt-3a, b) 10 ng/ml Wnt-3a, c) 20 ng/ml Wnt-3a and d) 50 ng/ml Wnt-3a. In the absence of Wnt-3a the expression of CXCR4 was very low. […] Real-time PCR results (FIG. 28, panel a) also confirm this finding.
In order to confirm that the effect of Wnt-3a was through the Wnt pathway, a GSK-3 inhibitor was used to activate the downstream targets of Wnt, such as beta catenin. […] FIG. 29, panel a depicts the expression of CXCR4 by FACS at day 5 in the absence of Wnt-3a or GSK-3B inhibitor, b) +20 ng/ml Wnt-3a, c) +1000 nM GSK-3B inhibitor IX, d) +500 nM GSK-3B inhibitor IX, e) +100 nM GSK-3B inhibitor IX, f) +10 nM GSK-3B inhibitor IX, g) +100 nM GSK-3B inhibitor IX for days 1-2, and h) +10 nM GSK-3B inhibitor IX for days 1-2. […]

[2] = system: human embryonic stem cell line H9; assay: Real-time PCR, H9 maintained on […] and differentiated on MEFs (Example 25); type: cell-based
Method: Cells from the human embryonic stem cell line H9 cultured on […]™ for at least five passages were seeded onto MEF feeders in ES media.
At day 3 and 5, the cultures were analyzed by real time PCR for SOX-17, SOX-7, Alpha-fetal protein (AFP), CXCR4, Brychyury (Bry), gooscecoid (GSC), HNF-3 beta, GATA4, hTERT and Oct4. AFP and SOX-7 are regarded as visceral endoderm markers while GATA4, HNF-3beta and SOX-17 represent definite endoderm markers and GSC, Bry, and CXCR4 represent markers of primitive streak. hTERT and Oct-4 are markers for self renewal and pluripotency respectively. FACS analysis was also performed at day 3 and 5.

[3] = H9P46-P48, 20 ng/ml Wnt-3a or 100-1000 nM GSK-3B inhibitor, day 5

Molecule | number of CXCR4 positive cells [1, 3] | expression of CXCR4 (FACS) ([1]; H9P46-P48, 10 nm GSK-3B inhibitor, day 5) | expression of CXCR4 (CD184) by FACS ([1]; H7P44 and H9P46, day 5, DE protocol + 20 ng/ml Wnt-3a vs low serum plus AA) | number of CXCR4 positive cells ([1]; H9P46, 10-50 ng/ml Wnt-3a with 100 ng/ml AA, day 5) | cells expressing CXCR4 (FACS) [1] [%] | AFP expression ([2]; Wnt3a 20 ng/ml added to 100 ng/ml activin A, increases over time) | AFP expression ([2]; lower concentration of Activin A, regardless of Wnt3a)
O=C1Nc2cc(Br)ccc2/C1=C1/Nc2ccccc2/C1=N\O [GSK-3B inhibitor IX, reference compound] | significantly increased | very low |  |  |  |  | 
Wnt-3a | significantly increased |  | robust expression | significantly increased | 73 | increase in the expression of AFP | 
Activin A: a member of the TGFβ superfamily; R&D Systems; Group 2 = Activin A (100 ng/ml) |  |  |  |  | 1 |  | very high
